Test results from US20240247030A1, “TARGETED DELIVERY OF TERTIARY AMINE-CONTAINING DRUG SUBSTANCES” (Seagen Inc., priority 2014, published 2024).
Converted amounts (≈) assume the structure as drawn.

Tests used:
[1] = test system: L428 cells; experiment: Intracellular drug release (LC-MS/MS, 24 hr); assay type: cell-based; conditions: Table 12, free drug @ 50 nM
Procedure: (§1) Intracellular drug release. TFlα, L428, and HCT-15 cells were used for the study. Cells that had been cultured under normal conditions were harvested and washed into fresh medium at ˜5×10^5 cells/mL. For each treatment condition, 5-15×10^6 cells were plated in T25 or T150 flasks. cOKT9-5023 (8-drugs/Ab) was added at 1 μg/mL to cultures and they were incubated at 37° C., 5% CO2 for 24 hr. For suspension cells, a known volume of cell culture was harvested by centrifugation (500×g, 5 min, 4° C.), and an aliquot of the medium was removed and stored for mass spectral analysis (−20° C.). For adherent cells the medium was carefully removed (an aliquot stored for mass spectral analysis) and the cells lifted with trypsin-EDTA followed by centrifugation (500×g, 5 min, 4° C.) to collect the cell pellet. For both suspension and adherent cells, the harvested cell pellets were resuspended in ice cold PBS and an aliquot was removed for enumeration and determination of average cell diameters using a Vi-Cell XR2.03 cell viability analyzer (Beckman Coulter, Fullerton, CA). The remaining cell suspensions were pelleted (500×g, 5 min) and then washed once more with 1 mL of ice cold PBS. The resulting pellets were stored at −20° C.
(§2) Untreated samples were generated using untreated cell pellets and culture medium for use in calibration curves. Untreated cell pellets were spiked with 4 μL of 25× standard analyte. Both spiked and treated cell pellets were suspended by vortexing in 400 μL of MeOH containing internal standard and placed at −20° C. for 15 min. The samples were then centrifuged at 16,000×g and the supernatants were prepared for solid phase extraction. Untreated culture medium samples (0.5 mL) were spiked with 4 μL of 25× standard. Both spiked and treated culture media were mixed with 10 μL of internal standard and prepared for solid phase extraction. Samples were subjected to solid phase extraction and the recovered drug-containing solutions were dried and reconstituted for quantification by LC-MS/MS. To derive an equation for the quantitation of released drug in the experimental unknown samples, the peak area for each drug standard was divided by the peak area obtained for the internal standard. The resultant peak area ratios were plotted as a function of the standard spiked amounts and the data points were fitted to a curve using linear regression. The peak area ratios obtained for released drug to internal standard in the experimental samples were converted to drug amounts using the derived equation.
(§3) MDR cell lines that are CD71^+ are exposed to an LDC (1 μg/mL) comprised of and antibody targeting CD71 (cOKT9) and a quaternized MDR inhibitor (Tariquidar™). The LDC composition designated as cOKT9-gluc4-T was obtained from compound 36 of Scheme 6 and predominately contains LDCs having 8 D^+ units wherein D^+ is quaternized Tariquidar. The predominate LDC of the composition, after controlled hydrolysis of the succinimide ring system is represented by the structure of: […]

[2] = test system: TF1a cells; experiment: Intracellular drug release (LC-MS/MS, 24 hr); assay type: cell-based; conditions: Table 12
Procedure: as §1, §2, §3

[3] = test system: HCT-15 cells; experiment: Intracellular drug release (LC-MS/MS, 24 hr); assay type: cell-based; conditions: Table 12, free drug @ 50 nM
Procedure: as §1, §2, §3

[4] = J. Med. Chem., 2009, 52, 238-240; cited from earlier work
[5] = test system: co-culture of L540cy:U268Luc+ cells; experiment: In vitro cytotoxicity, bystander co-culture; assay type: cell-based; conditions: cAC10 conjugate obtained from compound 30; CD30+ and CD30- cells co-cultured
Procedure: (§4) In vitro assays. Cells cultured in log-phase growth were seeded for 24 h in 96-well plates containing 150 μL RPMI 1640 supplemented with 20% FBS. Serial dilutions of antibody-drug conjugates in cell culture media were prepared at 4× working concentrations; 50 μL of each dilution was added to the 96-well plates. Following addition of ADC, cells were incubated with test articles for 4 d at 37° C. After 96 h, growth inhibition was assessed by CellTiter-Glo™ (Promega, Madison, W1) and luminescence was measured on a plate reader. The IC50 value, determined in triplicate, is defined here as the concentration that results in a 50% reduction in cell growth relative to untreated controls.
The results of Table 2 and Table 3 indicate that potent and immunologically specific Ligand Drug Conjugates are obtained when a tubulysin is incorporated into such constructs as a quaternized drug unit and that such conjugates are active against multi-resistant cell lines. […] L540cy are CD30+ and U266 are CD30^−

[6] = test system: L428 MDR+ HL cells; experiment: In vitro cytotoxicity (CellTiter-Glo, 96 h); assay type: cell-based; conditions: for IC50, L428, MDR+ HL: Table 14, cOKT-9 conjugate
[7] = test system: HCT-116 CRC cells; assay type: cell-based; conditions: Table 14; cOKT-9 conjugate, 96 hours
Procedure: as §4

[8] = test system: KM-H2 HL cells; assay type: cell-based; conditions: Table 14; cOKT-9 conjugate, 96 hours
[9] = test system: HL60 AML cells; experiment: cells; assay type: cell-based; conditions: 96 hours; for IC50, HL60, AML: Table 14, cOKT-9 conjugate; for IC50: Homo sapiens, HL-60, 96 h, read-out: IC50, HL60, AML, Table 13, free drug
Procedure: as §4

[10] = test system: L540cy Hodgkin lymphoma cells; experiment: In vitro cytotoxicity (CellTiter-Glo, 96 h); assay type: cell-based; conditions: for IC50, L540cy, HL: Table 14, cOKT-9 (anti-transferrin receptor) conjugate, DAR 8 (30) or 6.7 (192), 96 hours
[11] = test system: 786-O RCC cells; experiment: In vitro cytotoxicity (CellTiter-Glo, 96 h); assay type: cell-based; conditions: Homo sapiens, 786-0, 96 h, read-out: IC50, 786-O, MDR+ RCC
[12] = test system: HEL9217 AML cells; experiment: In vitro cytotoxicity (CellTiter-Glo, 96 h); assay type: cell-based; conditions: Homo sapiens, HEL 92.1.7, 96 h, read-out: IC50, HEL9217, MDR+ AML
[13] = test system: panel of cell lines; experiment: In vitro cytotoxicity, statements across a panel of cell lines; assay type: cell-based; conditions: cOKT-9 conjugates, cell lines of Table 14
Procedure: as §4

[14] = test system: RL cells; experiment: In vitro cytotoxicity (CellTiter-Glo, 96 h); assay type: cell-based; conditions: Table 4
Procedure: as §4

[15] = test system: Ramos NHL cells; experiment: In vitro cytotoxicity (CellTiter-Glo, 96 h); assay type: cell-based; conditions: Table 4
Procedure: as §4

[16] = test system: Karpas299 ALCL cells; experiment: In vitro cytotoxicity (CellTiter-Glo, 96 h); assay type: cell-based; conditions: Table 4
Procedure: as §4

[17] = Table 4, quaternized auristatin E ADC, 8 D+/Ab
[18] = quaternized auristatin E ADC, 8 D+/Ab, CD30-, CD19+

COc1cc2c(cc1OC)CN(CCc1ccc(NC(=O)c3cc(OC)c(OC)cc3NC(=O)c3cnc4ccccc4c3)cc1)CC2 [Free drug, Tariquidar]
Intracellular drug, L428 [1]: 4.846 µM | extracellular drug, L428 ([1]; parenthetic value): 47.0 nM | Intracellular drug, TF1a ([2]; free drug (Tariquidar) @ 50 nM): 3.575 µM | extracellular drug, TF1a ([2]; free drug @ 50 nM, parenthetic: free drug that remains outside the cell): 43.8 nM | Intracellular drug, HCT-15 [3]: 6.649 µM | extracellular drug, HCT-15 ([3]; parenthetic value): 44.3 nM

CC[C@H](C)[C@H](NC(=O)[C@H]1CCCCN1C)C(=O)N[C@H](C[C@@H](O)c1nc(C(=O)N[C@@H](Cc2ccccc2)C[C@H](C)C(=O)O)cs1)C(C)C [tubulysin V, Tubulysin V]
loss of potency on deacetylation of tubulysin U [4]: > 100 fold

CC[C@H](C)[C@H](NC(=O)[C@H]1CCCC[N+]1(C)Cc1ccc(NC(=O)[C@H](C)NC(=O)[C@@H](NC(=O)CCCCCN2C(=O)C=CC2=O)C(C)C)cc1)C(=O)N(C)[C@H](C[C@@H](OC(C)=O)c1nc(C(=O)N[C@@H](Cc2ccccc2)C[C@H](C)C(=O)O)cs1)C(C)C (stereo partly drawn) [Compound 30, (2R)-2-(((2S,3S)-1-(((1R,3R)-1-acetoxy-1-(4-(((2R,4S)-4-carboxy-1-phenylpentan-2-yl)carbamoyl)thiazol-2-yl)-4-methylpentan-3-yl)(methyl)amino)-3-methyl-1-oxopentan-2-yl)carbamoyl)-1-(4-((S)-2-((S)-2-(6-(2,5-dioxo-2,5-dihydro-1H-pyrrol-1-yl)hexanamido)-3-methylbutanamido)propanamido)benzyl)-1-methylpiperidin-1-ium]
IC50 against a co-culture of L540cy:U268Luc+ cells [5]: 6 ng/mL | IC50, L428, MDR+ HL ([6]; 96 hours): 0.4 ng/mL | IC50, HCT-116, CRC [7]: 1 ng/mL | IC50, KM-H2 MDR+ HL [8]: <0.26 ng/mL | IC50, HL60, AML [9]: 6 ng/mL | IC50, L540cy, HL [10]: 1 ng/mL

CC[C@H](C)[C@H](NC(=O)[C@H]1CCCCN1C)C(=O)N(C)[C@H](C[C@@H](OC(C)=O)c1nc(C(=O)N[C@@H](Cc2ccccc2)C[C@H](C)C(=O)NN)cs1)C(C)C [Compound 190, (1R,3R)-3-((2S,3S)—N,3-dimethyl-2-((R)-1-methylpiperidine-2-carboxamido)pentanamido)-1-(4-(((2R,4S)-5-hydrazinyl-4-methyl-5-oxo-1-phenylpentan-2-yl)carbamoyl)thiazol-2-yl)-4-methylpentyl acetate]
IC50 [11]: 4 nM | IC50 ([6]; Homo sapiens, L-428, 96 h, read-out: IC50, L428, MDR+ HL, Table 13, free drug, 96 hours): 1 nM | IC50 [9]: 0.8 nM | IC50 [12]: 4 nM

CC[C@H](C)[C@H](NC(=O)[C@H]1CCCCN1C)C(=O)N(C)[C@H](C[C@@H](OC(C)=O)c1nc(C(=O)N[C@@H](Cc2ccccc2)C[C@H](C)C(=O)O)cs1)C(C)C [Compound 26, Tubulysin M, reference compound]
IC50 [9]: 0.2 nM | IC50 [12]: 0.4 nM

CC[C@H](C)[C@H](NC(=O)[C@H]1CCCCN1C)C(=O)N(C)[C@H](C[C@@H](OC(C)=O)c1nc(C(=O)N[C@@H](Cc2ccccc2)C[C@H](C)C(=O)NNC(=O)OCc2ccc(NC(=O)[C@H](CCCNC(N)=O)NC(=O)[C@@H](NC(=O)CCCCCN3C(=O)C=CC3=O)C(C)C)cc2)cs1)C(C)C [Compound 192, 4-((S)-2-((S)-2-(6-(2,5-dioxo-2,5-dihydro-1H-pyrrol-1-yl)hexanamido)-3-methylbutanamido)-5-ureidopentanamido)benzyl 2-((2S,4R)-4-(2-((1R,3R)-1-acetoxy-3-((2S,3S)—N,3-dimethyl-2-((R)-1-methylpiperidine-2-carboxamido)pentanamido)-4-methylpentyl)thiazole-4-carboxamido)-2-methyl-5-phenylpentanoyl)hydrazinecarboxylate]
IC50, L428, MDR+ HL ([6]; 96 hours): 284 ng/mL (≈ 0.212 µM) | less potent than the quaternary amine-linked TubM (30) conjugate [13]: 1-3 logs | IC50, HCT-116, CRC [7]: 302 ng/mL (≈ 0.225 µM) | IC50, KM-H2 MDR+ HL [8]: 56 ng/mL (≈ 0.0418 µM) | IC50, HL60, AML [9]: 85 ng/mL (≈ 0.0634 µM) | IC50, L540cy, HL [10]: 117 ng/mL (≈ 0.0873 µM)

B1: hBU12-14: "vcPAB4-AE ... obtained from compound 14 of Scheme 2 and ... monoclonal antibody hBU12, which targets C19+ cells" (conjugate, chains of the INN, looked up)
VH: QVQLQESGPGLVKPSQTLSLTCTVSGGSISTSGMGVGWIRQHPGKGLEWIGHIWWDDDKRYNPALKSRVTISVDTSKNQFSLKLSSVTAADTAVYYCARMELWSYYFDYWGQGTLVTVSS
VL: EIVLTQSPATLSLSPGERATLSCSASSSVSYMHWYQQKPGQAPRLLIYDTSKLASGIPARFSGSGSGTDFTLTISSLEPEDVAVYYCFQGSVYPFTFGQGTKLEIK
modifications: vcPAB4-auristatin E drug-linker 14
viable cells remaining at the bottom of the dose-response curve, L428 ([6]; Table 4, parenthetic value): 41% | IC50 for cell growth inhibition, L428 [6, 17]: 8614 ng/mL | viable cells remaining at the bottom of the dose-response curve, RL ([14]; parenthetic value): 21% | IC50 for cell growth inhibition, RL [14, 18]: 2110 ng/mL | viable cells remaining at the bottom of the dose-response curve, Ramos ([15]; parenthetic value): 0% | IC50 for cell growth inhibition, Ramos [15, 18]: 0.7 ng/mL | viable cells remaining at the bottom of the dose-response curve, Karpas-299 ([16]; parenthetic value): 10% | IC50 for cell growth inhibition, Karpas-299 ([16]; quaternized auristatin E ADC, 8 D+/Ab): 3903 ng/mL | viable cells remaining at the bottom of the dose-response curve, L540cy parental ([10]; Table 4, parenthetic value): 44% | IC50 for cell growth inhibition, L540cy parental [10, 17]: 5080 ng/mL
